Laboratory results as given in PMC11672125 (JACS Au, 2024).

Target: Brd4 (Homo sapiens, UniProt O60885)
Test: Brd4 degradation by immunoblotting in PC-3 cells
Assay type: cell-based
Conditions: siRNA-VHL 50 nM 72 h, then 30 nM SHD913 for 4 h

siVHL: siRNA against VHL; sense sequence 5′- GGCUCAACUUCGACGGCGA −3′ (antisense UCGCCGUCGAAGUUGAGCC; chemistry not given here)
effect of siVHL pretreatment on SHD913-mediated Brd4 degradation: reversed SHD913-mediated Brd4 degradation
